Molecules are shown by their SMILES. Counter-ions that a name gives are not always drawn.

The assay deals with Human platelet aggregation caused by ADP. Briefly: Inhibition of ADP-induced platelet aggregation (Mimic-human PRP). In kind it is cell-based. The settings on record: 20 μM ADP, human platelet concentrate diluted with PPP, absorption at 595 nm. The protocol: Platelet Preparation for Aggregation Studies
Human platelet aggregation reaction test is a functional experiment method to verify whether a test compound is an agonist or an antagonist to ADP receptor. […] The platelet product isolated from whole blood was purchased from Chung-Nam blood center (Dae-joen, South Korea). The platelet was isolated from 400 mL of whole blood containing 56 mL of CPDA-1 anticoagulant. To isolate the platelet product, 400 mL of whole blood was centrifuged at 260×g for 5 minutes, and then obtained PRP (platelet rich plasma) was secondary centrifuged at 370×g for 6 minutes. Platelet pellet (10^9/mL) was suspended with 45 mL of plasma and then agitated over 1 hour at 22° C. blood reservoir to stabilize it. The stabilized platelet product was used in the experiment within 24 hours. PCs (Platelet Concentrates) were gently transferred to a new 50 ml-falcon tube. The number of platelet was counted by using animal blood counter (ABC Vet, ABX diagnostics, France). The volume of 30 mL of PCs collected from same donor was centrifuged at 1500 g for 10 min at room temperature to prepare platelet-poor plasma (PPP). The platelet count was adjusted to platelet number of 3˜4×10^8/mL by diluting with PPP.
Evaluation on Inhibitory Effect of ADP-Induced Aggregation
Inhibition of ADP-induced aggregation was determined in 96-well flat-bottom plates (Costar, USA) at room temperature. The diluted platelet was aliquoted into each well of 96 well plate in the volume of 188 μl. […] The platelet including test compounds was immediately mixed on a shaker at 1050 rpm for 1 min and incubated at room temperature for 20 min. Then, 10 μL volume of 400 μM ADP was added: the final concentration of 20 μM ADP in the total reaction volume of 0.2 mL/well. After shaking of the plate at room temperature for 3 min, the absorption of the samples was determined at 595 nm using a microtiter plate reader (Softmax, Molecular Devices).
A dose-dependent curve on serial dilutions of ADP was accomplished by adding vehicle (DMSO) instead of antagonists in order to calculate EC50 of ADP. Inhibition of aggregation was calculated from the increase of absorption at 595 nm at 3 min of the reaction incubation, compared to results of absorption between the 0 and 20 μM ADP control without antagonists. Sigmoidal dose-response curves and Ki were derived by non-linear regression analysis using the Prism software (GraphPad, San Diego Calif.).
For the compound `CCCc1cc2c(N3CCn4c(nnc4C(F)(F)F)C3)nc(OCCN(CCOC(C)=O)C(C)=O)nc2s1` [Example 9-100, Acetic Acid 2-(acetyl-{2-[6-propyl-4-(3-trifluoromethyl-5,6-dihydro-8H-[1,2,4]triazolo[4,3-a]pyrazin-7-yl)-thieno[2,3-d]pyrimidin-2-yloxy]-ethyl}-amino)-ethyl ester], the Ki (as a rule, a measure of affinity in units of concentration, obtained from inhibition or displacement) turned out to be 0.038 µM. Compound `CCCC(=O)NC1CCN(c2nc(N3CCn4c(nnc4C(F)(F)F)C3)c3cc(CCC)sc3n2)CC1` [Example 7-13, Hydrochloric acid salt of N-{1-[6-Propyl-4-(3-trifluoromethyl-5,6-dihydro-8H-[1,2,4]triazolo[4,3-a]pyrazin-7-yl)-thieno[2,3-d]pyrimidin-2-yl]-piperidin-4-yl}-butyramide] showed a Ki of 0.076 µM. This Ki is about 2-fold higher than that of the compound before. For `CCCc1cc2c(N3CCn4c(nnc4C(F)(F)F)C3)nc(N3CC[C@H](NC(=O)C(C)(C)O)C3)nc2s1` [Example 1-107, 2-Hydroxy-2-methyl-N-{(S)-1-[6-propyl-4-(3-trifluoromethyl-5,6-dihydro-8H-[1,2,4]triazolo[4,3-a]pyrazin-7-yl)-thieno[2,3-d]pyrimidin-2-yl]-pyrrolidin-3-yl}-propionamide], affinity was put at a Ki of 0.019 µM. `CCCc1cc2c(N3CCn4c(nnc4C(F)(F)F)C3)nc(-n3ccc([N+](=O)[O-])c3)nc2s1` [Example 9-47, 7-[2-(3-Nitro-pyrrole-1-yl)-6-propyl-thieno[2,3-d]pyrimidin-4-yl]-3-trifluoromethyl-5,6,7,8-tetrahydro-[1,2,4]triazolo[4,3-a]pyrazine] had a Ki of 3.9 µM. The compound `CCCc1cc2c(N3CCn4c(nnc4C(F)(F)F)C3)nc(N3CC[C@H](NC(=O)OC)C3)nc2s1` [Example 9-18, {(S)-1-[6-Propyl-4-(3-trifluoromethyl-5,6-dihydro-8H-[1,2,4]triazolo[4,3-a]pyrazin-7-yl)-thieno[2,3-d]pyrimidin-2-yl]-pyrrolidin-3-yl}-carbamic acid methyl ester] had a Ki of 0.01 µM. `CCCc1cc2c(N3CCn4c(nnc4C(F)(F)F)C3)nc(N3CC[C@@H](NC(C)=O)C3)nc2s1` [Example 7-3, Hydrochloric acid salt of N-{(R)-1-[6-Propyl-4-(3-trifluoromethyl-5,6-dihydro-8H-[1,2,4]triazolo[4,3-a]pyrazin-7-yl)-thieno[2,3-d]pyrimidin-2-yl]-pyrrolidin-3-yl}-acetamide] returned a Ki of 0.026 µM. This Ki lies about 2.6-fold higher than the previous one. In turn, `CCCc1cc2c(N3CCn4c(nnc4C(F)(F)F)C3)nc(N3CC[C@H](C(=O)N(C)C)C3)nc2s1` [Example 1-88, (S)-1-[6-Propyl-4-(3-trifluoromethyl-5,6-dihydro-8H-[1,2,4]triazolo[4,3-a]pyrazin-7-yl)-thieno[2,3-d]pyrimidin-2-yl]-pyrrolidine-3-carboxylic acid dimethylamide] came in with a Ki of 0.016 µM.

Consider `CCCCN(C)C(=O)[C@H]1CCN(c2nc(N3CCn4c(nnc4C(F)(F)F)C3)c3cc(CCC)sc3n2)C1` [Example 9-63, (S)-1-[6-Propyl-4-(3-trifluoromethyl-5,6-dihydro-8H-[1,2,4]triazolo[4,3-a]pyrazin-7-yl)-thieno[2,3-d]pyrimidin-2-yl]-pyrrolidine-3-carboxylic acid butyl-methyl-amide], for which the inhibitory constant (Ki) was determined as 2 µM. The result for `CCCc1cc2c(N3CCn4c(nnc4C(F)(F)F)C3)nc(N3CC(O)C(NC(=O)C(C)(C)C)C3)nc2s1` (stereo not shown) [Example 7-21, N-{4-Hydroxy-1-[6-propyl-4-(3-trifluoromethyl-5,6-dihydro-8H-[1,2,4]triazolo[4,3-a]pyrazin-7-yl)-thieno[2,3-d]pyrimidin-2-yl]-pyrrolidin-3-yl}-2,2-dimethyl-propionamide] reads 0.021 µM; that for `CCCc1cc2c(N3CCn4c(nnc4C(F)(F)F)C3)nc(N3CC(O)C(NC(=O)OCC)C3)nc2s1` (stereo not shown) [Example 9-1, {4-Hydroxy-1-[6-propyl-4-(3-trifluoromethyl-5,6-dihydro-8H-[1,2,4]triazolo[4,3-a]pyrazin-7-yl)-thieno[2,3-d]pyrimidin-2-yl]-pyrrolidin-3-yl}-carbamic acid ethyl ester], 0.018 µM; that for `CCCc1cc2c(N3CCn4c(nnc4C(F)(F)F)C3)nc(Nc3cn[nH]c3)nc2s1` [Example 9-58, [6-Propyl-4-(3-trifluoromethyl-5,6-dihydro-8H-[1,2,4]triazolo[4,3-a]pyrazin-7-yl)-thieno[2,3-d]pyrimidin-2-yl]-(1H-pyrazol-4-yl)-amine], 0.022 µM. The compound `CCCc1cc2c(N3CCn4c(nnc4C(F)(F)F)C3)nc(N(C)CCC(N)=O)nc2s1` [Example 9-104, 3-{Methyl-[6-propyl-4-(3-trifluoromethyl-5,6-dihydro-8H-[1,2,4]triazolo[4,3-a]pyrazin-7-yl)-thieno[2,3-d]pyrimidin-2-yl]-amino}-propionamide] displayed a Ki of 0.014 µM. In the case of `CCCc1cc2c(N3CCn4c(nnc4C(F)(F)F)C3)nc(OCCN3CCCC3=O)nc2s1` [Example 3-62, 1-{2-[6-Propyl-4-(3-trifluoromethyl-5,6-dihydro-8H-[1,2,4]triazolo[4,3-a]pyrazin-7-yl)-thieno[2,3-d]pyrimidin-2-yloxy]-ethyl}-pyrrolidin-2-one], the Ki was 0.0019 µM.

The compound `CCCc1cc2c(N3CCn4c(nnc4C(F)(F)F)C3)nc(N3CC[C@H](NC(=O)NS(=O)(=O)c4ccc(Cl)s4)C3)nc2s1` [Example 9-17] displayed a Ki of 0.019 µM.

Compound `CCCc1cc2c(N3CCn4c(nnc4C(F)(F)F)C3)nc(N3CCC[C@@H](NC(=O)C(C)C)C3)nc2s1` [Example 7-8, Hydrochloric acid salt of N-{(R)-1-[6-Propyl-4-(3-trifluoromethyl-5,6-dihydro-8H-[1,2,4]triazolo[4,3-a]pyrazin-7-yl)-thieno[2,3-d]pyrimidin-2-yl]-piperidin-3-yl}-isobutyramide] gave an inhibition constant (Ki) of 0.15 µM. For the compound `CCCc1cc2c(N3CCn4c(nnc4C(F)(F)F)C3)nc(N3CC(O)C(NC(=O)C(C)(C)O)C3)nc2s1` (stereo not shown) [Example 7-23, 2-Hydroxy-N-{4-hydroxy-1-[6-propyl-4-(3-trifluoromethyl-5,6-dihydro-8H-[1,2,4]triazolo[4,3-a]pyrazin-7-yl)-thieno[2,3-d]pyrimidin-2-yl]-pyrrolidin-3-yl}-2-methyl-propionamide], affinity was put at a Ki of 0.012 µM. With `CCCc1cc2c(N3CCn4c(nnc4C(F)(F)F)C3)nc(N3CC[C@H](CNC(C)=O)C3)nc2s1` [Example 8-4, N-{(R)-1-[6-Propyl-4-(3-trifluoromethyl-5,6-dihydro-8H-[1,2,4]triazolo[4,3-a]pyrazin-7-yl)-thieno[2,3-d]pyrimidin-2-yl]-pyrrolidin-3-ylmethyl}-acetamide], affinity was put at a Ki of 0.014 µM. This Ki and that of the compound before are within 1.5-fold of each other.

In turn, `CCCc1cc2c(N3CCn4c(nnc4C(F)(F)F)C3)nc(N[C@@H]3CCN(C(C)=O)C3)nc2s1` [Example 8-16, 1-{(R)-3-[6-Propyl-4-(3-trifluoromethyl-5,6-dihydro-8H-[1,2,4]triazolo[4,3-a]pyrazin-7-yl)-thieno[2,3-d]pyrimidin-2-ylamino]-pyrrolidin-1-yl}-ethanone] returned a Ki of 0.035 µM. Regarding `CCCc1cc2c(N3CCn4c(nnc4C(F)(F)F)C3)nc(NC3CN(C(C)=O)C3)nc2s1` [Example 8-10, 1-{3-[6-Propyl-4-(3-trifluoromethyl-5,6-dihydro-8H-[1,2,4]triazolo[4,3-a]pyrazin-7-yl)-thieno[2,3-d]pyrimidin-2-ylamino]-azetidin-1-yl}-ethanone], affinity was put at a Ki of 0.11 µM.

The record behind these values is patent US20110166121A1 (LG LIFE SCIENCES LTD., priority 2008, published 2011).
